From the SangsterLogP compilation come the findings set out here.

As usually defined, the logP is the decadic logarithm of the partition coefficient of the neutral form, usually between octanol and water. A higher logP goes with a more lipophilic compound.

This series is described as follows: method code SF-AS, from DOI: 10.1021/jm00252a008, PMID: 4598022.
Take `CC(=O)NC1=NC(=O)/C(=C\C=Cc2ccc([N+](=O)[O-])o2)S1` (stereo in doubt): the logP was 0.95.

With `O=C1NC(=Nc2ccccc2)SC1=Cc1ccc([N+](=O)[O-])o1`, the logP worked out at 1.41. Consider `CCCN=C1SC(=Cc2ccc([N+](=O)[O-])o2)C(=O)N1CCC`, for which the logP was 1.32. Regarding `O=C1NC(=O)/C(=C\c2ccc([N+](=O)[O-])o2)S1`, the logP was determined as 0.63. For the molecule `C/N=C1\NC(=O)/C(=C/c2ccc([N+](=O)[O-])o2)S1`, the logP is 1.16. `CCCN1C(=O)S/C(=C\c2ccc([N+](=O)[O-])o2)C1=O` gave a logP of 2.4. Molecule `O=C1NC(=S)SC1=CC=Cc1ccc([N+](=O)[O-])o1` yielded a logP of 0.93. In turn, `CCN1C(=O)C(=Cc2ccc([N+](=O)[O-])o2)S/C1=N\C(C)=O` registered a logP of 1.21.

Molecule `O=C1NC(=S)SC1=Cc1ccc([N+](=O)[O-])o1` showed a logP of 0.74.

For the molecule `CSC1=NC(=O)C(=Cc2ccc([N+](=O)[O-])o2)S1` (stereo in doubt), the logP came out at 1.41. As for `C/N=C1/NC(=O)/C(=C/C=C/c2ccc([N+](=O)[O-])o2)S1`, the logP was determined as 1.35.

`C/N=C1\SC(=Cc2ccc([N+](=O)[O-])o2)C(=O)N1C` yielded a logP of 1.42. `CCN1C(=N)SC(=Cc2ccc([N+](=O)[O-])o2)C1=O` had a logP of 1.44. This logP and that of the molecule before are within 0.2 log units of each other. As to `CC(=O)N(C)C1=NC(=O)/C(=C\C=C/c2ccc([N+](=O)[O-])o2)S1`, the logP was 1.21.

Consider `CC(C)/N=C1\NC(=O)/C(=C/c2ccc([N+](=O)[O-])o2)S1`, for which the logP came to 1.29. On to `C=CCN1C(=O)S/C(=C\c2ccc([N+](=O)[O-])o2)C1=O`, for which the logP worked out at 2.22.

`CC(=O)Nc1nc(=O)cc(-c2ccc([N+](=O)[O-])o2)s1` came in with a logP of 1.01. The result for `C=CCN=C1SC(=Cc2ccc([N+](=O)[O-])o2)C(=O)N1CC=C` reads 1.46; that for `CC(=O)NC1=NC(=O)/C(=C/c2ccc([N+](=O)[O-])o2)S1`, 1.03. Turning to `CN1C(=O)/C(=C\c2ccc([N+](=O)[O-])o2)SC1=S`, the logP worked out at 1.06. Then `CCC/N=C1\NC(=O)/C(=C/c2ccc([N+](=O)[O-])o2)S1`, with 1.24. `CC(C)N=C1SC(=Cc2ccc([N+](=O)[O-])o2)C(=O)N1C(C)C` registered a logP of 1.22.

Consider `CCN(CC)C1=NC(=O)/C(=C/c2ccc([N+](=O)[O-])o2)S1`, for which the logP came out at 1.22. Consider `CCN1C(=O)S/C(=C/c2ccc([N+](=O)[O-])o2)C1=O`, for which the logP was determined as 2.29.

In turn, `CN1C(=N)S/C(=C/c2ccc([N+](=O)[O-])o2)C1=O` yielded a logP of 1.44. Regarding `CC/N=C1\NC(=O)/C(=C/c2ccc([N+](=O)[O-])o2)S1`, the logP was found to be 1.16. As to `NC1=NC(=O)C(=Cc2ccc([N+](=O)[O-])o2)S1` (stereo in doubt), the logP is 1.09. In the case of `CC(C)N1C(=O)S/C(=C\c2ccc([N+](=O)[O-])o2)C1=O`, the logP came to 2.42.

Regarding `CN1C(=O)SC(=CC=Cc2ccc([N+](=O)[O-])o2)C1=O`, the logP was 1.4.

`CC(=O)N(C)C1=NC(=O)/C(=C/c2ccc([N+](=O)[O-])o2)S1`: the logP was found to be 1.05. Molecule `CN(C)c1nc(=O)cc(-c2ccc([N+](=O)[O-])o2)s1` returned a logP of 0.55. As for `O=c1cc(-c2ccc([N+](=O)[O-])o2)sc(=O)[nH]1`, the logP worked out at 0.55.

In turn, `CNc1nc(=O)cc(-c2ccc([N+](=O)[O-])o2)s1` gave a logP of 0.86. For `CN1C(=O)S/C(=C\c2ccc([N+](=O)[O-])o2)C1=O`, the logP stood at 1.78. `CCCN1C(=O)/C(=C/c2ccc([N+](=O)[O-])o2)S/C1=N\C(C)=O` displayed a logP of 1.17. With `CN(C)C1=NC(=O)/C(=C/c2ccc([N+](=O)[O-])o2)S1`, the logP was found to be 1.16.

`CC(=O)N=C1S/C(=C\c2ccc([N+](=O)[O-])o2)C(=O)N1C` (stereo in doubt) came in with a logP of 1.21.
